From the NIST ThermoML archive (doi:10.1021/je049571n) come the findings set out here.

Data set [1] is described as follows: refractive index (Na D-line) (dimensionless). The note with it: 101.33 kPa, Liquid, Standard Abbe refractometry.
The conditions of data set [2]: Liquid; for mass density: 101.33 kPa.

SMILES strings stand for the structures. Numbers after ± are expanded uncertainties.

The refractive index is the speed of light in vacuum divided by its phase velocity in the sample. Usually mass density stands for mass per unit of volume. As for `COC(=O)CCCC(=O)OC` [dimethyl pentanedioate], in data set [1] (298.2 K), the refractive index is listed as 1.4242 ± 0.0012. Besides, the mass density in data set [2] (293.2 K) is 1087.74 ± 0.65 kg/m3. In addition, the Normal boiling temperature in data set [2] came to 214.1 ± 0.2 °C.
With `CC(=O)O` [acetic acid], the refractive index in data set [1] (293.2 K) stood at 1.3719 ± 0.0012. The mass density in data set [2] (298.2 K) is given as 1047.22 ± 0.28 kg/m3. Also, the Normal boiling temperature in data set [2] worked out at 118.1 ± 0.2 °C.
